According to ChEMBL document CHEMBL1955725, “Structure-guided lead optimization of triazolopyrimidine-ring substituents identifies potent Plasmodium falciparum dihydroorotate dehydrogenase inhibitors with clinical candidate potential” (J Med Chem, 2011):

Biological target: T1, Dihydroorotate dehydrogenase (Plasmodium falciparum, UniProt Q54A96)
T1 sequence (Q54A96 whole entry): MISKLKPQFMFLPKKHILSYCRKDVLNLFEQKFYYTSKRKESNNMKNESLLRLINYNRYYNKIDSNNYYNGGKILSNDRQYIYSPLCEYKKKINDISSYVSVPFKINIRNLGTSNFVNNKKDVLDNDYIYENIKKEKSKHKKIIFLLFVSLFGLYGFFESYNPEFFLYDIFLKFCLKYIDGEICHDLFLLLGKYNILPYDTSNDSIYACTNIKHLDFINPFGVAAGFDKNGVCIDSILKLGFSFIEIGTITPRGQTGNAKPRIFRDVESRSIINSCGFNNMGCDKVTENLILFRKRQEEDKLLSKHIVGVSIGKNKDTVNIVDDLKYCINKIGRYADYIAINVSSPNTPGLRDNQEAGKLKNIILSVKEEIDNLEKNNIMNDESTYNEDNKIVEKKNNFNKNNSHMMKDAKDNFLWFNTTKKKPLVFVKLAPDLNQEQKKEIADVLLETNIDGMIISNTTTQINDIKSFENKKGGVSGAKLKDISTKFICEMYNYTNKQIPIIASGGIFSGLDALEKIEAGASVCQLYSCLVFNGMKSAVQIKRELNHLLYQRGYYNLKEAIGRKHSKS
Conditions: not given

Row | Structure (SMILES) | IC50 [µM]
1 | Cc1cc(Nc2cccc(Cl)c2)n2nc(S(C)(=O)=O)nc2n1 | 0.16
2 | Cc1cc(Nc2ccc(C(F)(F)F)cc2)n2nc(S(C)(=O)=O)nc2n1 | 0.09
3 | COc1nc2nc(C)cc(Nc3ccc(Cl)cc3)n2n1 | 0.46
4 | CCOc1nc2nc(C)cc(Nc3cccc(Cl)c3)n2n1 | 0.4
5 | CCOc1nc2nc(C)cc(Nc3ccc(Cl)cc3)n2n1 | 0.27
6 | COCCOc1nc2nc(C)cc(Nc3ccc(Cl)cc3)n2n1 | > 10
7 | COCCOc1nc2nc(C)cc(Nc3cccc(Cl)c3)n2n1 | 4.9
8 | CNCCOc1nc2nc(C)cc(Nc3cccc(Cl)c3)n2n1 | > 10
9 | CNCCOc1nc2nc(C)cc(Nc3ccc(C(F)(F)F)cc3)n2n1 | > 10
10 | Cc1cc(Nc2ccc(Cl)cc2)n2nc(OCCN(C)C)nc2n1 | > 10
11 | Cc1cc(Nc2ccc(C(F)(F)F)cc2)n2nc(OCCN)nc2n1 | > 10
12 | Cc1cc(Nc2ccc(Cl)cc2)n2nc(OCCN)nc2n1 | > 10
13 | Cc1cc(Nc2ccc(Cl)cc2)n2[nH]c(=O)nc2n1 | > 10
14 | CNCCc1nc2nc(C)cc(Nc3ccc(Cl)cc3)n2n1 | > 10
15 | Cc1cc(Nc2ccc(Cl)cc2)n2nc(CN)nc2n1 | > 10
16 | CNCc1nc2nc(C)cc(Nc3ccc(Cl)cc3)n2n1 | > 10
17 | Cc1cc(Nc2cccc(Cl)c2)n2nc(CN(C)C)nc2n1 | > 10

Continued, values first:

Row | IC50 [µM] | Structure (SMILES)
18 | 0.026 | CSc1nc2nc(C)cc(Nc3cccc(Cl)c3)n2n1
19 | 0.045 | Cc1cc(Nc2ccc(Cl)cc2)n2nc(S(C)(=O)=O)nc2n1
20 | 0.11 | Cc1cc(Nc2ccc(S(F)(F)(F)(F)F)cc2)n2nc(S(C)(=O)=O)nc2n1
21 | > 10 | CNCCOc1nc2nc(C)cc(Nc3ccc(Cl)cc3)n2n1
22 | > 10 | Cc1cc(Nc2cccc(Cl)c2)n2nc(OCCN(C)C)nc2n1
23 | > 10 | Cc1cc(Nc2ccc(C(F)(F)F)cc2)n2nc(OCCN(C)C)nc2n1
24 | > 10 | Cc1cc(Nc2ccc(S(F)(F)(F)(F)F)cc2)n2nc(OCCN(C)C)nc2n1
25 | > 10 | Cc1cc(Nc2cccc(Cl)c2)n2nc(OCCN)nc2n1
26 | > 10 | Cc1cc(Nc2cccc(Cl)c2)n2[nH]c(=O)nc2n1
27 | > 10 | Cc1cc(Nc2ccc(Cl)cc2)n2nc(CN(C)C)nc2n1
28 | > 10 | CNCCc1nc2nc(C)cc(Nc3cccc(Cl)c3)n2n1
29 | > 10 | Cc1cc(Nc2cccc(Cl)c2)n2nc(CN)nc2n1
30 | > 10 | CNCc1nc2nc(C)cc(Nc3cccc(Cl)c3)n2n1
31 | > 10 | Cc1cc(Nc2ccc(Cl)cc2)n2nc(CCN)nc2n1
32 | 5.3 | Cc1cc(Nc2ccc(Cl)cc2)n2nc(CO)nc2n1
33 | 6.1 | Cc1cc(Nc2cccc(Cl)c2)n2nc(CO)nc2n1

Tested on: not listed separately
Assay: Inhibition of Plasmodium berghei C-terminal hexa-His tagged DHODH expressed in Escherichia coli by DCIP reduction assay
Conditions: not given

Row | IC50 [µM] | Structure (SMILES)
34 | 1.3 | COc1nc2nc(C)cc(Nc3cccc(Cl)c3)n2n1
35 | 1.2 | COc1nc2nc(C)cc(Nc3ccc(Cl)cc3)n2n1
36 | > 10 | COCCOc1nc2nc(C)cc(Nc3cccc(Cl)c3)n2n1

Row | Structure (SMILES) | IC50 [µM]
37 | CCOc1nc2nc(C)cc(Nc3cccc(Cl)c3)n2n1 | 1.9
38 | CCOc1nc2nc(C)cc(Nc3ccc(Cl)cc3)n2n1 | 1.6

Tested on: Plasmodium falciparum
Assay: Antimalarial activity against Plasmodium falciparum 3D7 by [3H]hypoxanthine incorporation assay in presence of human serum
Assay type: functional, organism-based
Conditions: not given

Row | Structure (SMILES) | EC50 [µM]
39 | Cc1cc(Nc2cccc(Cl)c2)n2nc(S(C)(=O)=O)nc2n1 | > 2.5
40 | Cc1cc(Nc2ccc(C(F)(F)F)cc2)n2nc(S(C)(=O)=O)nc2n1 | 0.17
41 | COc1nc2nc(C)cc(Nc3cccc(Cl)c3)n2n1 | 0.98
42 | COc1nc2nc(C)cc(Nc3ccc(Cl)cc3)n2n1 | 0.59
43 | CCOc1nc2nc(C)cc(Nc3cccc(Cl)c3)n2n1 | 4.4
44 | CCOc1nc2nc(C)cc(Nc3ccc(Cl)cc3)n2n1 | 1.3
45 | CNCCc1nc2nc(C)cc(Nc3ccc(Cl)cc3)n2n1 | > 2.5

The next lines start with the values.

Row | EC50 [µM] | Structure (SMILES)
46 | 0.15 | CSc1nc2nc(C)cc(Nc3cccc(Cl)c3)n2n1
47 | 1.4 | Cc1cc(Nc2ccc(Cl)cc2)n2nc(S(C)(=O)=O)nc2n1
48 | 2 | Cc1cc(Nc2ccc(S(F)(F)(F)(F)F)cc2)n2nc(S(C)(=O)=O)nc2n1
49 | > 2.5 | CNCCc1nc2nc(C)cc(Nc3cccc(Cl)c3)n2n1
50 | > 2.5 | Cc1cc(Nc2ccc(Cl)cc2)n2nc(CO)nc2n1
51 | > 10 | Cc1cc(Nc2cccc(Cl)c2)n2nc(CO)nc2n1

Tested on: not listed separately
Assay: Lipophilicity, log D of the compound at pH 7.4
Assay type: physicochemical
Conditions: buffer

Row | logD | Structure (SMILES)
52 | 2.4 | Cc1cc(Nc2cccc(Cl)c2)n2ncnc2n1

Biological target: Dihydroorotate dehydrogenase (quinone), mitochondrial (Homo sapiens, UniProt Q02127)
Sequence (Q02127 whole entry): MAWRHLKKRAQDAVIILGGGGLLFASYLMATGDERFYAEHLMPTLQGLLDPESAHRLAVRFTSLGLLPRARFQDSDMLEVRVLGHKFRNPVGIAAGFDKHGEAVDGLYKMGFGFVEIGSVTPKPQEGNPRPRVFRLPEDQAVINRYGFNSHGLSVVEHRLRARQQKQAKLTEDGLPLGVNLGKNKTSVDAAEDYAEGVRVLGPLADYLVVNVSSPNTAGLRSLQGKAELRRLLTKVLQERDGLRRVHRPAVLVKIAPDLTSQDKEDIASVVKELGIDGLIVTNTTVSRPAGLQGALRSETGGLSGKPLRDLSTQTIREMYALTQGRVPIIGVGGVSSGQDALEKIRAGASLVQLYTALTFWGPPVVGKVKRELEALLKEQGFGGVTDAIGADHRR
Conditions: not given

Row | Structure (SMILES) | IC50 [µM]
53 | CCOc1nc2nc(C)cc(Nc3cccc(Cl)c3)n2n1 | > 100
54 | CCOc1nc2nc(C)cc(Nc3ccc(Cl)cc3)n2n1 | > 100
